We go through nine molecules from paper PMC9308172 (Journal of medicinal chemistry, 2017).

For one experiment, the system named is A/WSN/33-M2-N31S. In kind it is cell-based, Influenza virus A/WSN/33 (H1N1). To be noted: read-out: IC50 A/WSN/33-M2-N31S.
Turning to `C1CNC2(C1)C1CC3CC(C1)CC2C3` (stereo not shown) [Compound 6], the IC50 stood at 340 ± 80 nM.
For `CC1(N)C2CC3CC(C2)CC1C3` (stereo not shown) [Compound 3], the IC50 was 330 ± 100 nM.
Same read-out and setting: with `CC12CC3CC(CC(C3)C13CCCN3)C2` (stereo not shown) [Compound 8, 1′-Methylspiro[pyrrolidine-2,2′-adamantane]] the figure was 6120 ± 2590 nM; with `NC1(C23CC4CC(CC(C4)C2)C3)CCCC1` [Compound 9], 4340 ± 2940 nM; with `NC12CC3CC(CC(C3)C1)C2` [Compound 1, Amantadine, reference compound], 270 ± 160 nM.
On the same count and under the same terms, with `NC1C2CC3CC(C2)CC1C3` (stereo not shown) [Compound 2] the figure was 420 ± 460 nM; with `CCC1(N)C2CC3CC(C2)CC1C3` (stereo not shown) [Compound 4], 340 ± 260 nM; with `CN1CCCC12C1CC3CC(C1)CC2C3` (stereo not shown) [Compound 7], 900 ± 290 nM.
Same read-out and setting: with `CCCC1(N)C2CC3CC(C2)CC1C3` (stereo not shown) [Compound 5] the figure was 340 ± 100 nM.

The subject of a further experiment is A/California/07/2009 (H1N1) M2: N31. To be noted: cited from earlier work.
For `CCCC1(N)C2CC3CC(C2)CC1C3` (stereo not shown) [Compound 5], the “blockage of full-length S31N M2 protein in electrophysiology (EP) studies” value is reported as “no blockage”.
